According to patent US8691727B2, “Pesticidal compositions” (Syngenta Crop Protection, LLC, priority 2005, dated 2014):

Key:
[1] = system: F. subglutinans; test: Agar test: seed contamination and mycelium growth on artificially infected corn seeds; assay type: cell-based, Fusarium subglutinans; details: corn cv. Magister; for FUSSUB Activity Observed / FUSSUB Contaminated Seeds / FUSSUB Mycelium Growth: after 6 days
Procedure: (§1) An agar test is performed to evaluate the effect of seed treatments with fludioxonil (2.5 g/100 kg seed)+mefenoxam (1.0 g/100 kg seed), thiabendazole at 10, 15 and 20 g/100 kg seed and the corresponding mixtures of all three components on seed health and viability of corn. Seed lots of corn cv. Magister, is infected artificially with either F. proliferatum or F. subglutinans, are used.
(§2) Czapek-Dox medium (OXOID) is prepared according to manufacturer's recipe: 45.4 g agar in 1 l aqua bidest., autoclaved for 15 min at 121° C., and is cooled down to 55° C. 15 ml medium is poured into each petridish (Ø 10 cm) and is allowed to cool.
(§3) 10 seeds are placed on the surface of the agar. 5 replicates per treatment are done. Petridishes are placed in an incubator at 20° C. under NUV-light (12 h a day). The number of seeds where Fusarium spp. grew out on the agar is rated after an incubation period of 6 days.
(§4) • Mefenoxam (1.0 g ai/100 kg seed)+fludioxonil (2.5 g ai/100 kg seed). • Thiabendazole at 10, 15 and 20 g ai/100 kg seed. • Mefenoxam (1.0 g ai/100 kg seed)+fludioxonil (2.5 g ai/100 kg seed)+thiabendazole (at 10, 15 or 20 g ai/100 kg seed).
(§5) For combined treatments mefenoxam+fludioxonil are applied first on the seeds as a combined formulation and after drying the second application on the seeds with thiabendazole is performed.

[2] = system: F. proliferatum; test: as above; assay type: cell-based, Fusarium proliferatum; details: corn cv. Magister, after 6 days
Procedure: as §1, §2, §3, §4, §5

[3] = thiabendazole 10 g ai/100 kg seed (mixture: plus mefenoxam 1.0 g + fludioxonil 2.5 g ai/100 kg seed)
[4] = thiabendazole 15 g ai/100 kg seed (mixture: plus mefenoxam 1.0 g + fludioxonil 2.5 g ai/100 kg seed)
[5] = thiabendazole 20 g ai/100 kg seed (mixture: plus mefenoxam 1.0 g + fludioxonil 2.5 g ai/100 kg seed)

Which results are given for `c1ccc2[nH]c(-c3cscn3)nc2c1` [Thiabendazole, thiabendazole]?
FUSSUB Activity Observed [1, 3]: 32%; FUSSUB Contaminated Seeds [1, 3]: 94%; FUSSUB Mycelium Growth [1, 3]: 68%; FUSSUB Activity Observed [1, 4]: 60%; FUSSUB Contaminated Seeds [1, 4]: 100%; FUSSUB Mycelium Growth [1, 4]: 40%; FUSSUB Activity Observed [1, 5]: 91%; FUSSUB Contaminated Seeds [1, 5]: 52%; FUSSUB Mycelium Growth [1, 5]: 9%; Mycelium growth, dose response (in words) ([1]; thiabendazole at 10, 15 and 20 g ai/100 kg seed): linear dose response; FUSPRO Activity Observed [2, 3]: 40%; FUSPRO Contaminated Seeds [2, 3]: 62%; FUSPRO Mycelium Growth [2, 3]: ~60%; FUSPRO Contaminated Seeds [2, 4]: 44%; FUSPRO Contaminated Seeds [2, 5]: 40%; FUSPRO Contaminated Seeds ([2]; thiabendazole 20 g ai/100 kg seed (mixture: plus mefenoxam 1.0 g + fludioxonil 2.5 g ai/100 kg seed), listed as thiabendazole): reduces the number of Fusarium infected seeds
